# How the values were obtained:
# [1] = Fluorescence emission of photonic SCKs and cross-linkers as a function of solution pH; type: physicochemical
# Method: The resulting micelle solution 2 was incubated with 6.25 mol % or 12.5 mol % of the diamino-terminated pyrazine, relative to the acrylic acid residues, with the addition of EDCI, to afford SCK 3 or 4 having different amounts of fluorophores incorporated into the shells and, therefore, different degrees of cross-linking. The reaction mixture solutions were dialyzed against nanopure water for […] to remove the urea by-products and any non-attached pyrazine fluorophores. The SCK dimensions were then measured by atomic force microscopy (AFM) and transmission electron microscopy (TEM). […] Dialysis of the SCK solutions against nanopure water (ca. pH 7) for 3 days and then partitioning into six vials, each containing 5 mL of 5 mM PBS at pH 4.5, 6.1, 8.0, 9.5, or 11.0, placed the SCKs into different pH environments for analysis of the effects on the SCK hydrodynamic diameters and on the fluorophore photophysical properties.
# Covalent cross-linking between the pyrazine units and the PAA shells, thereby, affords photonic SCKs for potential pH sensing. Covalent cross-linking between pyrazine and PAA shells constitutes photonic SCKs for potential biomedical applications. We expected to observe the photophysical consequences of the deprotonated PAA shell from pH 4.5 to 9.5 and those of the PpHS core from pH 9.5 to 11. In order to test our hypothesis, UV-vis and fluorescence measurements were collected on the resulting SCK solutions over the pH range of 4.5 to 11.0 to determine the pyrazine concentration, and then normalize the concentration relative to the fluorescence intensity values (See, FIG. 8). […] To observe the photophysical properties of the photonic SCKs, the data for the pyrazines within the SCK shell layers were compared between the two SCKs having different degrees of pyrazine loading and also against the pyrazine cross-linker associated physically with PAA and as a small molecule in buffered solutions.
# To a 50 mL RB flask equipped with a magnetic stir bar was added a solution of micelles in nanopure H2O (15.0 mL, 0.016 mmol of carboxylic acid residues). To this solution, was added a solution of 3,6-diamino-N^2,N^5-bis(2-aminoethyl)pyrazine-2,5-dicarboxamide (0.397 mg, 1.12 μmol (6.25 mol % relative to the acrylic acid residues) for 12.5% cross-linking extent; or 0.794 mg, 2.24 μmol (12.5 mol % relative to the acrylic acid residues) for 25% cross-linking extent) in 1 mL nanopure H2O. The reaction mixture was allowed to stir for 2 h at room temperature. To this solution was added, dropwise via a syringe pump over 1 h, a solution of 1-[3′-(dimethylamino)propyl]-3-ethylcarbodiimide methiodide (EDCI, 0.849 mg, 2.86 μmol for 12.5% cross-linking extent; or 1.70 mg, 5.72 μmol for 25% cross-linking extent) in nanopure H2O (1.0 mL) and the reaction mixture was further stirred for 16 h at room temperature. Finally, the reaction mixture was transferred to pre-soaked dialysis tubing (MWCO ca. 3,500 Da) and dialyzed against nanopure water for 3 d to remove the small molecule starting materials and by-products, and afford aqueous solutions of SCK 3 and 4. SCK solutions for DLS, UV-vis, and fluorescence studies were further partitioned into six vials each containing 5 mM PBS (with 5 mM NaCl) at pH values of 4.5, 6.1, 8.0, 9.5, and 11.
# Preparation of shell cross-linked nanoparticles (SCK) from micelles: Micelle solution pH was adjusted between 5 and 6. An electronic pipette was used to add 6.25 mol % or 12.5 mol % of diamine-terminated cross-linker (from stock solution with concentration 2.392 mg/mL or 6.2957 mg/mL) to the micelle solution and let stir for 3 hrs. To this reaction mixture was added dropwise, via a metering pump, a solution of 1-[3-(dimethylamino)propyl]-3-ethylcarbodiimide methiodide dissolved in nanopure water (12.5 mol % or 25.0 mol %). […]
# [2] = pH-responsive UV-Vis and fluorescence emission of MCNs, SCKs and small molecule cross-linkers; type: physicochemical; details: small molecules in buffer at the surveyed pH values (5.8 to 8.6)
# Method: The UV-vis absorption spectra of MCNs were collected at room temperature using a Varian Cary 100 Bio UV-visible spectrophotometer and plastic cuvettes with 10 mm of light path. For each MCN absorption spectroscopy measurement, the corresponding buffer solution (5 mM with 5 mM of NaCl) outside the dialysis tubing was used as control.
# The fluorescence spectra of MCNs were obtained at room temperature using a Varian Cary Eclipse fluorescence spectrophotometer. All fluorescence spectra from MCN solutions were measured at optical densities at the excitation wavelength. If not specially mentioned otherwise, an excitation wavelength of the observed maximum absorption peak was used. Each fluorescence spectrum was normalized with respect to the absorbed light intensity at the excitation wavelength.
# To a solution of PEO45-b-PNAS105-b-PS45 MCMs (30.0 mg of block copolymer precursor, 127 μmol of NAS residues) in 60.0 mL of DMF/H2O (v:v=1:1) at room temperature, was added dropwise over 10 min, a solution of cross-linker 2 or 3 of FIG. 24 (12.7 μmol for nominal 20% of cross-linking and 31.8 μmol for nominal 50% of cross-linking, respectively) in nano-pure H2O. The reaction mixture was allowed to stir for 48 h at room temperature in the absence of light. […]
# [3] = excited between 488 nm and 530 nm; cited from earlier work
compound,measurement,setting,value
"Cl.Cl.NCCNC(=O)c1nc(N)c(C(=O)NCCN)nc1N [Photonic Cross-Linker Example 2, 3,6-diamino-N^2,N^5-bis(2-aminoethyl)pyrazine-2,5-dicarboxamide dihydrochloride]",change in fluorescence,[1]; as a function of increasing pH,less than 10%
same,Normalized percent increase in fluorescence,[1]; solution pH 4.5,100%
same,Normalized percent increase in fluorescence,[1]; solution pH 6.1,100%
same,Normalized percent increase in fluorescence,[1]; solution pH 8.0,100%
same,Normalized percent increase in fluorescence,[1]; solution pH 9.5,110%
same,Normalized percent increase in fluorescence,[1]; solution pH 11.0,100%
Cl.Cl.NCCNC(=O)c1nc(N)c(C(=O)NCCN)nc1N [cross-linker 2],UV-Vis absorbance and fluorescence emission spectra variation,[2],no apparent UV-Vis absorbance and fluorescence emission spectra variation
carboxyseminaphthofluorescein [cSNARF®-1],I580/I640 ratio,[3],greater than thirty
Cl.Cl.NCCCOCCOCCOCCCNC(=O)c1nc(N)c(C(=O)NCCCOCCOCCOCCCN)nc1N [cross-linker 3],UV-Vis absorbance and fluorescence emission spectra variation,[2],no apparent UV-Vis absorbance and fluorescence emission spectra variation
"Cl.Cl.NCCCOCCOCCOCCCNC(=O)c1nc(N)c(C(=O)NCCCOCCOCCOCCCN)nc1N [Photonic Cross-Linker Example 3, 3,6-diamino-N^2,N^5-bis(3-(2-(2-(3-aminopropoxy)ethoxy)ethoxy)propyl)pyrazine-2,5-dicarboxamide dihydrochloride]",decrease in fluorescence,[1]; as a function of increasing pH,ca. 30%
